According to a compilation of properties of binary mixtures (doi:10.1016/j.molliq.2012.02.004):

Experiment: xn = mol fraction of the nth substance listed
Conditions: 101 kPa

Compound `CC(C)O` + CCCCCC[n+]1ccn(C)c1.F[B-](F)(F)F has a viscosity (293.15 K, x1 = 1) of 2.36 mPa·s, a viscosity (303.15 K, x1 = 1) of 1.77 mPa·s and a viscosity (313.15 K, x1 = 1) of 1.33 mPa·s. It also gave a viscosity (323.15 K, x1 = 1) of 1.01 mPa·s.

`CCCCCC[n+]1ccn(C)c1.F[B-](F)(F)F` + CC(C)O gave a viscosity (293.15 K, x2 = 0) of 230 mPa·s, a viscosity (293.15 K, x2 = 0.1493) of 113 mPa·s and a viscosity (293.15 K, x2 = 0.2289) of 78 mPa·s. The viscosity (293.15 K, x2 = 0.2992) was 57.1 mPa·s, the viscosity (293.15 K, x2 = 0.3752) was 41 mPa·s and the viscosity (293.15 K, x2 = 0.4942) was 24.9 mPa·s. The viscosity (293.15 K, x2 = 0.5845) was 16.8 mPa·s, the viscosity (293.15 K, x2 = 0.7067) was 10.05 mPa·s and the viscosity (293.15 K, x2 = 0.762) was 7.82 mPa·s. The viscosity (303.15 K, x2 = 0) was 130 mPa·s, the viscosity (303.15 K, x2 = 0.2289) was 48.2 mPa·s and the viscosity (303.15 K, x2 = 0.2992) was 36.1 mPa·s. For the same compound, the viscosity (303.15 K, x2 = 0.4942) was 16.9 mPa·s, the viscosity (303.15 K, x2 = 0.9165) was 2.65 mPa·s and the viscosity (313.15 K, x2 = 0) was 78 mPa·s. For the same compound, the viscosity (313.15 K, x2 = 0.1493) was 42.6 mPa·s, the viscosity (313.15 K, x2 = 0.2289) was 31.7 mPa·s and the viscosity (313.15 K, x2 = 0.3752) was 18.8 mPa·s. The viscosity (313.15 K, x2 = 0.4942) was 12.2 mPa·s, the viscosity (313.15 K, x2 = 0.5845) was 8.53 mPa·s and the viscosity (313.15 K, x2 = 0.7067) was 5.15 mPa·s. The viscosity (313.15 K, x2 = 0.9165) was 1.96 mPa·s, the viscosity (323.15 K, x2 = 0.1493) was 28.1 mPa·s and the viscosity (323.15 K, x2 = 0.3752) was 14.6 mPa·s. The viscosity (323.15 K, x2 = 0.4942) was 9.3 mPa·s, the viscosity (323.15 K, x2 = 0.5845) was 6.62 mPa·s and the viscosity (323.15 K, x2 = 0.7067) was 3.95 mPa·s. It also gave a viscosity (323.15 K, x2 = 0.762) of 3.04 mPa·s, a viscosity (323.15 K, x2 = 0.9165) of 1.5 mPa·s and a viscosity (333.15 K, x2 = 0.2289) of 16.3 mPa·s. The viscosity (333.15 K, x2 = 0.2992) was 13.2 mPa·s, the viscosity (333.15 K, x2 = 0.4942) was 7.04 mPa·s and the viscosity (333.15 K, x2 = 0.5845) was 5.06 mPa·s. The viscosity (333.15 K, x2 = 0.7067) was 3.05 mPa·s and the viscosity (333.15 K, x2 = 0.9165) was 1.02 mPa·s.
